{"source": "patent US10864178B2", "about": "“Pharmaceutical composition for treatment of cancer containing polyphenol compound as active ingredient” (priority 2016, dated 2020)", "key": {"MKN45 [1]": {"system": "MKN45", "assay": "Proliferation inhibition, sulforhodamine B assay", "type": "cell-based", "settings": "Homo sapiens, MKN-45, 48 hours treatment", "method": "(§1) In order to examine the proliferation inhibitory effects of gossypol against stomach cancer cell lines, 6 different stomach cancer cell lines (MKN28, MKN45, AGS, SNU668, Kato3 and HS746T) were prepared. The definition of cell lines known in the Korean Cell Line Bank or the American Type Culture Collection (ATCC) is described in Table 1 below.\n(§2) Each of the 6 different cell lines (1×10^3 to 1×10^4 cells/well) was cultured in a 96-well plate for 24 hours, and treated with 0, 10, 20, 40 or 60 μM of gossypol, and then further cultured for 48 hours."}, "SNU668": {"system": "SNU668", "assay": "Proliferation inhibition, sulforhodamine B assay", "type": "cell-based", "settings": "Homo sapiens, 48 hours treatment", "method": "as §1, §2"}, "Kato3": {"system": "Kato3", "assay": "Proliferation inhibition, sulforhodamine B assay", "type": "cell-based", "settings": "Homo sapiens, 48 hours treatment", "method": "as §1, §2"}, "AGS [2]": {"system": "AGS", "assay": "Proliferation inhibition, sulforhodamine B assay", "type": "cell-based", "settings": "Homo sapiens, 48 hours treatment", "method": "as §1, §2"}, "MKN28 [3]": {"system": "MKN28", "assay": "Proliferation inhibition, sulforhodamine B assay", "type": "cell-based", "settings": "Homo sapiens, MKN-28, 48 hours treatment", "method": "as §1, §2"}, "HS746T [4]": {"system": "HS746T", "assay": "Proliferation inhibition, sulforhodamine B assay", "type": "cell-based", "settings": "Homo sapiens, 48 hours treatment", "method": "as §1, §2"}, "MKN45 [5]": {"system": "MKN45", "assay": "Cell cycle analysis, PI staining, FACS", "type": "cell-based, Human", "settings": "10 μM gossypol, 24 hours", "method": "(§3) Each of the 6 different stomach cancer cells lines (MKN28, MKN45, AGS, SNU668, Kato3 and HS746T) (1×10^3 to 1×10^4 cells/well), described in Example 1-1 above, was cultured in a 100 mm culture dish for 24 hours, and treated with 0 or 10 μM of gossypol, and then further cultured for 24 hours. The cells treated with gossypol were harvested, fixed with 70% ethanol, washed with cold 1×PBS, and then stained with PI+RNase solution (DPBS, pH 7.4) in a dark room for 30 minutes. The cells were subjected to fluorescence activated cell sorting (FACS), and the percentage of each cell cycle was analyzed based on the content of DNA."}, "AGS [6]": {"system": "AGS", "assay": "Cell cycle analysis, PI staining, FACS", "type": "cell-based, Human", "settings": "10 μM gossypol, 24 hours", "method": "as §3"}, "MKN28 [7]": {"system": "MKN28", "assay": "Cell cycle analysis, PI staining, FACS", "type": "cell-based, Human", "settings": "10 μM gossypol, 24 hours", "method": "as §3"}, "HS746T [8]": {"system": "HS746T", "assay": "Cell cycle analysis, PI staining, FACS", "type": "cell-based, Human", "settings": "10 μM gossypol, 24 hours", "method": "as §3"}, "[9]": {"system": "stomach cancer stem cells (MKN-1 and SNU-484)", "assay": "Proliferation inhibition, average over stomach cancer stem cells", "type": "cell-based", "settings": "average of MKN-1 and SNU-484; read-out: IC50 concentration, average", "method": "(§4) First, in order to examine the growth inhibitory effect of gossypol against stomach cancer stem cells, two types of common stomach cancer cells (AGS and MKN-74) and two types of stomach cancer stem cells (MKN-1 and SNU-484) were prepared. Each type of cells was cultured in a 96-well plate at a density of 1×10^3 to 1×10^4 cells/well for 24 hours, and treated with 0, 10, 20, 40 or 60 μM of gossypol, and then further cultured for 48 hours. […] Based on the measured absorbance, the IC50 concentration of gossypol, at which the survival rate of each type of cells, is measured, and the results are shown in FIGS. 6 and 7."}, "SNU-484": {"system": "SNU-484", "assay": "Proliferation inhibition of stomach cancer stem cells, sulforhodamine B assay", "type": "cell-based", "settings": "SNU-484 stomach cancer stem cells; 48 hours; read-out: IC50 concentration", "method": "as §4"}, "MKN-1": {"system": "MKN-1", "assay": "Proliferation inhibition of stomach cancer stem cells, sulforhodamine B assay", "type": "cell-based", "settings": "Homo sapiens; MKN-1 stomach cancer stem cells; 48 hours; read-out: IC50 concentration", "method": "as §4"}, "PAGS (parental AGS)": {"system": "PAGS (parental AGS)", "assay": "Proliferation inhibition, parental AGS cells", "type": "cell-based", "settings": "Homo sapiens, read-out: IC50 concentration", "method": "as §4\n(§5) On selected AGS cells (hereinafter referred to as SAGS (selected AGS), Cell Death Dis. 2015 Jul. 2; 6:e1805) selected from the common stomach cancer cell line AGS (hereinafter referred to as PAGS (parental AGS)) by analyzing phenotypes, including the cancer stem cell marker expression, tumor spheroid formation and standard anticancer agent resistance of cancer cells that survived under 4 weeks of continuous metabolic stress, and tumor formation in immunosuppressed mice, the growth inhibitory effects of gossypol were examined. Cell culture and survival rate measurement methods were performed in the same manner as Example 2-1."}, "SAGS (selected AGS)": {"system": "SAGS (selected AGS)", "assay": "Proliferation inhibition, selected AGS cells with the nature of cancer stem cells", "type": "cell-based", "settings": "Homo sapiens, read-out: IC50 concentration", "method": "as §4, §5"}, "[10]": {"system": "stomach cancer cell lines (MKN28, MKN45 and SNU668)", "assay": "ATP synthesis inhibition (Promega ATP assay kit)", "type": "cell-based, Human", "settings": "0, 10 or 20 μM of gossypol, 48 hours", "method": "ATP (adenosine triphosphate) is an energy source for organisms, and inhibition of intracellular ATP synthesis leads to a decrease in energy metabolism activity. The ATP synthesis inhibitory effects of gossypol on the stomach cancer cell lines (MKN28, MKN45 and SNU668) described in Example 1-1 were examined.\nEach of MKN28, MKN45 and SNU668 cell lines (1×10^3 to 1×10^4 cells/plate) was cultured in a 60 mm culture dish for 24 hours, treated with 0, 10 or 20 μM of gossypol, and then additionally cultured for 48 hours. Next, the cells were harvested, counted, diluted in 100 μl of RPMI buffer containing 10 vol % FBS, and then transferred to each well of 96-well plate. To each well containing the cells, 100 μl of assay buffer (rL/L reagent+reconstitution buffer) in the Promega ATP assay kit (G7572, Promega, […]., USA) was added, after which the emission of fluorescence was determined by measuring the absorbance at 560 nm."}, "AGS [11]": {"system": "AGS", "assay": "Proliferation inhibition of common stomach cancer cells, sulforhodamine B assay", "type": "cell-based", "settings": "Homo sapiens, 48 hours, read-out: IC50 concentration", "method": "as §4"}, "MKN-74": {"system": "MKN-74", "assay": "Proliferation inhibition of common stomach cancer cells, sulforhodamine B assay", "type": "cell-based", "settings": "Homo sapiens; MKN-74 common stomach cancer cells; 48 hours; read-out: IC50 concentration", "method": "as §4"}, "[12]": {"system": "MKN45 (poorly differentiated cells)", "assay": "Cell death, Annexin V+PI staining, FACS", "type": "cell-based, Human", "method": "(§6) Each of MKN28 (moderately differentiated cells) and MKN45 (poorly differentiated cells) cell lines (1×10^3 to 1×10^4 cells/plate), described in Example 1-1 above, was cultured in a 100 mm culture dish for 24 hours, and treated with 0, 5, 10 or 20 μM of gossypol, and then diluted in 400 μl of binding buffer (0.1 M Hepes, pH 7.4, 1.4 M NaCl, and 25 mM CaCl2)). The control cells treated with 0 μM of gossypol were divided into four groups which were not stained, stained with Annexin V, stained with PI (propidium iodide) and stained with Annexin V+PI, respectively, and the cells treated with 5, 10 or 20 μM of gossypol were stained with Annexin V+PI. Staining of the cells was performed in a dark room for 10 minutes. The stained cells were subjected to fluorescence activated cell sorting (FACS), thereby determining the ratio of dead cells to total cells. The results are shown in FIGS. 3 and 4 (BD Biosciences, #556547)."}, "[13]": {"system": "MKN28 (moderately differentiated cells)", "assay": "Cell death, Annexin V+PI staining, FACS", "type": "cell-based, Human", "method": "as §6"}, "[14]": {"system": "common stomach cancer cells (MKN-74 and AGS)", "assay": "Proliferation inhibition, average over common stomach cancer cells", "type": "cell-based", "settings": "Homo sapiens; average of MKN-74 and AGS; read-out: IC50 concentration, average", "method": "as §4"}}, "note": "pIC50: −log10 of the molar value."}
{"smiles": "Cc1cc2c(C(C)C)c(O)c(O)c(C=O)c2c(O)c1-c1c(C)cc2c(C(C)C)c(O)c(O)c(C=O)c2c1O", "note": "[gossypol]", "values": [{"measurement": "GI50", "setting": "MKN45 [1]", "result": 4.65, "unit": "µM"}, {"measurement": "GI50", "setting": "SNU668", "result": 4.11, "unit": "µM"}, {"measurement": "GI50", "setting": "Kato3", "result": 3.15, "unit": "µM"}, {"measurement": "GI50", "setting": "AGS [2]", "result": 6.43, "unit": "µM"}, {"measurement": "GI50", "setting": "MKN28 [3]", "result": 5.32, "unit": "µM"}, {"measurement": "GI50", "setting": "HS746T [4]", "result": 9.89, "unit": "µM"}, {"measurement": "sum of sub G1 and GO/G1 compared to before treatment", "setting": "MKN45 [5]", "result": "increased"}, {"measurement": "sum of sub G1 and GO/G1 compared to before treatment", "setting": "AGS [6]", "result": "increased"}, {"measurement": "sum of sub G1 and GO/G1 compared to before treatment", "setting": "MKN28 [7]", "result": "decreased"}, {"measurement": "sum of sub G1 and GO/G1 compared to before treatment", "setting": "HS746T [8]", "result": "increased"}, {"measurement": "pIC50", "setting": "[9]", "result": 5.58}, {"measurement": "pIC50", "setting": "SNU-484", "result": 5.57}, {"measurement": "pIC50", "setting": "MKN-1", "result": 5.59}, {"measurement": "pIC50", "setting": "PAGS (parental AGS)", "result": 5.38}, {"measurement": "pIC50", "setting": "SAGS (selected AGS)", "result": 5.55}, {"measurement": "ATP synthesis", "setting": "[10]", "result": "inhibited in proportion to the concentration of gossypol"}, {"measurement": "pIC50", "setting": "AGS [11]", "result": 5.35}, {"measurement": "pIC50", "setting": "MKN-74", "result": 5.25}, {"measurement": "cell death percentage", "setting": "[12]; 5 μM gossypol", "result": 45.75, "unit": "%"}, {"measurement": "cell death percentage", "setting": "[12]; 10 μM gossypol", "result": 65.8, "unit": "%"}, {"measurement": "cell death percentage", "setting": "[12]; 20 μM gossypol", "result": 82.22, "unit": "%"}, {"measurement": "cell death percentage", "setting": "[13]; 5 μM gossypol", "result": 17.72, "unit": "%"}, {"measurement": "cell death percentage", "setting": "[13]; 10 μM gossypol", "result": 28.85, "unit": "%"}, {"measurement": "cell death percentage", "setting": "[13]; 20 μM gossypol", "result": 55.62, "unit": "%"}, {"measurement": "pIC50", "setting": "[14]", "result": 5.30}]}
